Source: PMC3401280, “Moth Sex Pheromone Receptors and Deceitful Parapheromones” (PLoS ONE, 2012)
Counter-ions that a name gives are not always drawn. Like-named read-outs stand apart in the source and are kept apart here. Each block holds one compound with its values, some of them ahead of it.

Key:
Type in all cases: cell-based
[1] = target: T1, HvirOR13 (HR13) (Heliothis virescens, UniProt Q6A1K1); assay: two-electrode voltage clamp in Xenopus oocytes
T1 construct: full ORF (AJ748328) in pGEMHE, expressed in Xenopus oocytes; with HvirOrco (HR2)
T1 sequence (Q6A1K1 1-425): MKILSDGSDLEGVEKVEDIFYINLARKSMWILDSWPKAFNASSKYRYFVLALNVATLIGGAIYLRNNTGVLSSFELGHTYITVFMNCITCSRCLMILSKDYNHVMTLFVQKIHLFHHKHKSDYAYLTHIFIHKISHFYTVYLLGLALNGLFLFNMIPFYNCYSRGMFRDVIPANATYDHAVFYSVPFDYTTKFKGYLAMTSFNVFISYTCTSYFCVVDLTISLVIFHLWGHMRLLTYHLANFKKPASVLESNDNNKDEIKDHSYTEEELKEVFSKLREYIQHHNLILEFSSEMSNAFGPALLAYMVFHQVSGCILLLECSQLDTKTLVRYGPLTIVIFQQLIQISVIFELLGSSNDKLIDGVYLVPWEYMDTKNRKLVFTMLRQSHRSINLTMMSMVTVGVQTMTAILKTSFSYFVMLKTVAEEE
T1 sequence (Q8MMI4 1-472 partner): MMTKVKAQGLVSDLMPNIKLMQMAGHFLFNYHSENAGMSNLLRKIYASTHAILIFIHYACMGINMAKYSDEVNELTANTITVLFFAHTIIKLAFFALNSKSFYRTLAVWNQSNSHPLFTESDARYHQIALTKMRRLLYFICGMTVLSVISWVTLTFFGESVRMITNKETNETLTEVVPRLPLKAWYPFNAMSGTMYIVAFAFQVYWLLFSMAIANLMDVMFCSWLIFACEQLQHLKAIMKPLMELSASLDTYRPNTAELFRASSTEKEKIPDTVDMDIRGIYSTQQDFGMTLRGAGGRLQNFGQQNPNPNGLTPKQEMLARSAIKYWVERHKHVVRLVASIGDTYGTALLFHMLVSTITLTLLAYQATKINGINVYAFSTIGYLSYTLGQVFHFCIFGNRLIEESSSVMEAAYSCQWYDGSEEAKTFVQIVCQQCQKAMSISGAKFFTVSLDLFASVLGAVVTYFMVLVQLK

[2] = target: T2, AtraOR1 (Amyelois transitella, UniProt J7FXC2); assay: two-electrode voltage clamp in Xenopus oocytes
T2 construct: full ORF (428 residues, JX173648) in pGEMHE, expressed in Xenopus oocytes; with AtraOrco
T2 sequence (J7FXC2 1-427): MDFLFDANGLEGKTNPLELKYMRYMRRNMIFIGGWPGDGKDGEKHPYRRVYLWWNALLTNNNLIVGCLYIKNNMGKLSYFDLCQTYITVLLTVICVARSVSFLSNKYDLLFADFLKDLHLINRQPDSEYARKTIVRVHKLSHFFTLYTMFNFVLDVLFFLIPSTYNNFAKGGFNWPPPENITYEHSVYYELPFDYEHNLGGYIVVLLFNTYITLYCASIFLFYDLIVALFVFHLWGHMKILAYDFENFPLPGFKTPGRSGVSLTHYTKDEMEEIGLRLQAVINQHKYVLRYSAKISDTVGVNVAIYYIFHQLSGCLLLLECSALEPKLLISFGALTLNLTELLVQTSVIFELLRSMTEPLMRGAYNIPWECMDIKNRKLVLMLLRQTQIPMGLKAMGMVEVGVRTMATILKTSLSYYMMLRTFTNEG
T2 sequence (J7G1V0 1-474 partner): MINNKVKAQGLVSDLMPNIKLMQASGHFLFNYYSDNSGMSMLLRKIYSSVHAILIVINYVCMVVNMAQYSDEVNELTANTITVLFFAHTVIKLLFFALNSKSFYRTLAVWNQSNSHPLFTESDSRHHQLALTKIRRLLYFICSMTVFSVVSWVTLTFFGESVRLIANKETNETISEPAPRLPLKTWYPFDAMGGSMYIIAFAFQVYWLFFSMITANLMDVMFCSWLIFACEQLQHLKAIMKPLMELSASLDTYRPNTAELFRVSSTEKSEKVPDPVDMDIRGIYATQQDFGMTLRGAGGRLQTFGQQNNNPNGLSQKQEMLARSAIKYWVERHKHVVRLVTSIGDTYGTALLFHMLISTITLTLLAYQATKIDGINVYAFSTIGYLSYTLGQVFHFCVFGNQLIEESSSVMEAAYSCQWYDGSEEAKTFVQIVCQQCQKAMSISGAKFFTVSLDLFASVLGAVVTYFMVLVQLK

[3] = target: T2, AtraOR1; assay: two-electrode voltage clamp in Xenopus oocytes, screened at […]

Structure (SMILES): CCCC/C=C\CCCCCCCCOC=O [Z9-14OFor, (9Z)-tetradecen-1-yl formate]
EC50 [1]: 33 nM

Structure (SMILES): CC/C=C\C=C/CCCCCCCCOC=O [Z9Z11-14OFor, (9Z,11Z)-tetradecadien-1-yl formate]
EC50 [2]: 90 nM

EC50 ([1]; read-out: EC50): 150 nM
Structure (SMILES): CCCC/C=C\CCCCCCCCCC=O [Z11-16Ald, (11Z)-hexadecenal]

Structure (SMILES): CC/C=C\C=C/CCCCCCCCCC=O [Z11Z13-16Ald, (11Z,13Z)-hexadecadienal]
EC50 [2]: 499 nM

Structure (SMILES): CC/C=C\C=C/CCCCCCCCCCO [Z11Z13-16OH, (11Z,13Z)-hexadecadien-1-ol]
two-electrode voltage clamp in Xenopus oocytes, screened at 100 μM [3]: AtraOR1•AtraOrco-expressing oocytes showed moderate response to Z11Z13-16OH
